Data reported in US7868147B2, “Fluorescent probe” (Sekisui Medical Co., Ltd., priority 2003, dated 2011).

Key:
[1] = Oxidation potential of the benzene ring moiety (PET donor); format: physicochemical; conditions: 0.1 M acetonitrile containing tetrabutylammonium perchlorate (TBAP)
Excerpt: For the selection of a combination of R^1 and R^2, information of the electron density of the benzene ring to which they bind may be utilized. Information of the electron density of the benzene ring is easily available, for example, by calculating oxidation potential of said benzene ring according to a quantum chemical means. A reduction of the oxidation potential of said benzene ring means an increase of the electron density of said benzene ring, which corresponds to an elevation of HOMO orbital energy. For example, HOMO energy of said benzene ring moiety can be determined by a density functional theory (B3LYP/6-31G(d)). All the oxidation potentials described in the specification are indicated as values obtained with a saturated calomel electrode as a reference electrode, of which base line is different by about 0.24 V from that used for values obtained with a silver/silver nitrate electrode (Ag/Ag^+) as a reference electrode.
(§1) Correlation between fluorescence quantum yield and the oxidation potential of the benzene ring moiety of each compound prepared above was studied. As clearly shown by the results in the figure, the fluorescence quantum yield of each compound changed depending on the oxidation potential of the benzene ring moiety. In an alkaline solution at pH 13, the OH group of the xanthene ring dissociates its proton to become an anion, and under this condition, the compound whose oxidation potential is 1.20V or lower became almost non-fluorescent, whereas the compound whose oxidation potential is 1.65V or higher emitted fluorescence with a quantum yield of almost 1. Between the two values, it was observed that the quantum yield decreases according to the decrease in the oxidation potential. An oxidation potential of the benzene ring under the acidic condition at pH 3.4, which has an influence on fluorescence, is different from that under a basic condition, i.e., the compound whose oxidation potential is 1.60V or lower is almost no fluorescent, whereas the compound whose oxidation potential is 1.90V or higher emitted fluorescence with a quantum yield of almost 0.3. It is known that the OH group of the xanthene ring is protonated at pH 3.4, and under this condition, the quantum yield of Fluorescein is about 0.3.

[2] = Maximum excitation and fluorescence wavelength of fluorescein derivatives; format: physicochemical; conditions: measured in 0.1 N aqueous NaOH
Excerpt: as §1

[3] = Fluorescence quantum yield; format: physicochemical; conditions: for Φfl (pH 3.4): pH 3.4, xanthene OH protonated; for Φfl (pH 13): pH 13, xanthene OH deprotonated
Excerpt: as §1

[4] = Fluorescence quantum yield; format: physicochemical; conditions: 100 mM sodium phosphate buffer
[5] = literature (Lindqvist et al., 1966); cited from earlier work

Structure (SMILES)	Oxidation potential [1]	Maximum excitation wavelength [2]	Maximum fluorescence wavelength [2]	Φfl (pH 3.4) [3]	Φfl (pH 13) [3]	Φfl ([4]; pH 9.0)	Φfl ([4]; pH 7.4)	fluorescence quantum yield relative to fluorescein [5]
Cc1ccc(C)c(-c2c3ccc(=O)cc-3oc3cc(O)ccc23)c1 [Compound 3]	1.98 V vs SCE	491 nm	510 nm	0.319	0.887	–	–	–
COC(=O)CCCCOc1ccc(-c2c3ccc(=O)cc-3oc3cc(O)ccc23)c(C)c1 [Compound 17]	–	–	–	–	–	0.82	–	–
COc1ccc(-c2c3ccc(=O)cc-3oc3cc(OP(=O)(O)O)ccc23)c(C)c1 [Compound 11]	–	–	–	–	–	–	0.029	–
COC(=O)CCCCOc1ccc(-c2c3ccc(=O)cc-3oc3cc(O[C@@H]4OC(COC(C)=O)[C@H](OC(C)=O)C(OC(C)=O)C4OC(C)=O)ccc23)c(C)c1 (stereo partly shown) [Compound 18]	–	–	–	–	–	–	0.005	–
O=c1ccc2c(-c3ccccc3)c3ccc(O)cc3oc-2c1 [6-Hydroxy-9-phenylfluorone]	–	–	–	–	–	–	–	lower fluorescence quantum yield
COc1ccc(-c2c3ccc(=O)cc-3oc3cc(O)ccc23)c(OC)c1 [Compound 7]	1.44 V vs SCE	494 nm	513 nm	0.001	0.200	–	–	–
COc1ccc(C)cc1-c1c2ccc(=O)cc-2oc2cc(O)ccc12 [Compound 6]	1.57 V vs SCE	494 nm	514 nm	0.004	0.500	–	–	–
COC(=O)COc1ccc(-c2c3ccc(=O)cc-3oc3cc(O)ccc23)c(C)c1 [Compound 15]	–	–	–	–	–	0.87	–	–
COc1ccc(OC)c(-c2c3ccc(=O)cc-3oc3cc(O)ccc23)c1 [Compound 8]	1.26 V vs SCE	494 nm	512 nm	0.000	0.010	–	–	–
Cc1ccc(-c2c3ccc(=O)cc-3oc3cc(O)ccc23)c(C)c1 [Compound 2]	2.08 V vs SCE	491 nm	510 nm	0.307	0.865	–	–	–
Cc1ccccc1-c1c2ccc(=O)cc-2oc2cc(O)ccc12 [Compound 1]	2.19 V vs SCE	491 nm	510 nm	0.319	0.847	–	–	–
COc1ccccc1-c1c2ccc(=O)cc-2oc2cc(O)ccc12 [Compound 4]	1.75 V vs SCE	494 nm	515 nm	0.076	0.860	–	–	–
COC(=O)COc1ccc(-c2c3ccc(=O)cc-3oc3cc(O[C@@H]4OC(COC(C)=O)[C@H](OC(C)=O)C(OC(C)=O)C4OC(C)=O)ccc23)c(C)c1 (stereo partly shown) [Compound 16]	–	–	–	–	–	–	0.069	–
COc1ccc(-c2c3ccc(=O)cc-3oc3cc(O)ccc23)c(C)c1 [Compound 5]	1.66 V vs SCE	492 nm	509 nm	0.010	0.840	–	–	–
